From PubChem BioAssay (NCI)
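A five-concentration, 48-hour dose response in 96-well plates underlies each endpoint, interpolated linearly between surrounding concentrations. The concentration for full growth arrest is given as TGI.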

Tests used:
Test in all cases: NCI tumour cell line growth inhibition, 48 h
MDA-MB-435 = system: MDA-MB-435
OVCAR-8 ovarian = system: OVCAR-8 ovarian
HT29 colon = system: HT29 colon
LOX IMVI melanoma = system: LOX IMVI melanoma
A498 renal = system: A498 renal
MOLT-4 leukemia = system: MOLT-4 leukemia
NCI/ADR-RES ovarian = system: NCI/ADR-RES ovarian
MDA-MB-231 breast = system: MDA-MB-231 breast
MALME-3M melanoma = system: MALME-3M melanoma
SK-MEL-28 melanoma = system: SK-MEL-28 melanoma

SMILES	TGI (MDA-MB-435) [µM]	TGI (OVCAR-8 ovarian) [µM]	TGI (HT29 colon) [µM]	TGI (LOX IMVI melanoma) [µM]	TGI (A498 renal) [µM]	TGI (MOLT-4 leukemia) [µM]	TGI (NCI/ADR-RES ovarian) [µM]	TGI (MDA-MB-231 breast) [µM]	TGI (MALME-3M melanoma) [µM]	TGI (SK-MEL-28 melanoma) [µM]
C/C(=N\O)c1cccc[n+]1Cc1ccccc1	> 100	> 100	> 100	> 100	> 100	> 100	> 100	> 100	> 100	> 100
CC(Oc1ccccc1)C(=O)NNC(=O)OC(C)(C)C (stereo not drawn)	> 100	> 100	> 100	> 100	> 100	> 100	> 100	> 100	> 100	> 100
O=C(NO)NCCCl	> 100	> 100	> 100	> 100	> 100	> 100	> 100	> 100	> 100	–
Br[C@@H]1[C@H]2c3nc4ccccc4nc3[C@@H]1C[C@H]2Br	> 100	> 100	> 100	> 100	> 100	> 100	> 100	> 100	> 100	> 100
O=c1c(Cc2ccc(Cl)cc2)nnc2sc(-c3ccc(-c4ccc(Cl)cc4Cl)o3)nn12	> 100	> 100	> 100	> 100	> 100	> 100	> 100	> 100	> 100	> 100
C/C(=C/CC[C@]1(CO)CC[C@]2(C)[C@H](CC[C@@H]3[C@@]4(C)CC[C@H](OC5OC(CO)C(O)C(O)C5OC5OC(CO)C(O)C(O)C5O)C(C)(C)[C@@H]4CC[C@]32C)[C@H]1O)CO (stereo partly drawn)	> 100	> 100	> 100	> 100	> 100	> 100	> 100	> 100	> 100	> 100
Cc1nc2sc(C(=O)c3ccc(Cl)cc3)c(N)c2c(-c2ccccc2Cl)c1C(=O)Nc1ccccc1	33.1	47.1	31.3	31.7	48	51.5	60	34.6	29.2	27.4
Nc1nc(Cl)c(Cl)c(NCC2(O)CCC2)n1	> 100	> 100	> 100	> 100	97	> 100	> 100	> 100	> 100	> 100
CCC(C)C1=C(O)[N+]2([O-])Oc3ccc(-c4c(O)c(O)c(-c5ccc(OC(C)=O)cc5)c(OC(C)=O)c4OC(C)=O)cc3OC2(C(C)CC)C(=O)N1O (stereo not drawn)	> 50	> 50	> 50	> 50	> 50	> 50	> 50	> 50	> 50	> 50
CCOC(=O)/C=C(\C(=O)OCC)n1cc(C)c(=O)n(Cc2cnnn2COCCOC(C)=O)c1=O	28.1	20.6	21.2	21	35.9	8.7	43.7	42.7	3.42	31.5
CC(C)=CC(=O)c1[nH]c2ccccc2c1CC(=O)NCCc1cncn1C	> 100	> 100	> 100	> 100	91.9	> 100	> 100	> 100	> 100	> 100
COc1ccccc1C1(c2c(OC)c(=O)c2=O)SCCCS1	> 100	> 100	> 100	> 100	> 100	> 100	> 100	> 100	> 100	> 100
O=C1CSC(c2cccc(Cl)c2)N1c1ccc(-c2ccc(-n3c(-c4ccccc4)nc4ccccc4c3=O)cc2)cc1 (stereo not drawn)	> 100	> 100	> 100	> 100	> 100	> 100	> 100	> 100	> 100	> 100
C[C@]12CC(c3ccccc3O1)C(C(=O)Nc1nc(C34CC5CC(CC(C5)C3)C4)cs1)C(=O)N2 (stereo partly drawn)	> 100	> 100	> 100	> 100	> 100	> 100	> 100	> 100	> 100	> 100
O=C1C(c2c(O)[nH]c3ccc(Br)cc23)=Nc2ccc(Br)cc21	> 100	81.3	> 100	> 100	> 100	> 100	> 100	79.5	> 100	> 100
COc1cc2c(/C=C3/C(=O)Nc4ccc(Cl)cc43)c(Cl)[nH]c2cc1C	0.57	19.7	7.54	6.25	22.9	0.814	6.44	4.62	20.9	14.5

SMILES	TGI (MDA-MB-435) [µM]	TGI (OVCAR-8 ovarian) [µM]	TGI (HT29 colon) [µM]	TGI (LOX IMVI melanoma) [µM]	TGI (A498 renal) [µM]	TGI (MOLT-4 leukemia) [µM]	TGI (NCI/ADR-RES ovarian) [µM]	TGI (MDA-MB-231 breast) [µM]	TGI (MALME-3M melanoma) [µM]	TGI (SK-MEL-28 melanoma) [µM]
O=C(O)c1nc2ccc(C(F)(F)F)cc2nc1Nc1ccc(F)cc1	44.7	83.8	> 100	53.3	37.6	28.9	84.7	65.6	38.3	> 100
CCCCOP(C)(=O)C(NC(=O)OCC)(C(F)(F)F)C(F)(F)F (stereo not drawn)	> 100	> 100	> 100	> 100	> 100	> 100	> 100	> 100	> 100	> 100
O=C(Cn1c(C(=O)c2ccccc2)nc2ccccc21)c1ccccc1	> 100	> 100	> 31.6	> 100	> 100	> 100	> 100	> 100	> 100	> 100
N/C1=C/C(=O)NC(=O)c2c(c3ccccc3oc2=O)C1	> 100	> 100	> 100	> 100	> 100	> 100	> 100	> 100	> 100	> 100
Cn1cc(S(=O)(=O)NC(=O)Nc2ccc(Cl)cc2)c(=O)c2ccc(F)cc21	> 100	> 100	> 100	> 100	> 100	> 100	> 100	> 100	> 100	> 100
Cc1cccc(CC(Cc2ccc(C)cc2C(=O)O)C(=O)O)c1 (stereo not drawn)	> 100	> 100	> 100	> 100	> 100	> 100	> 100	> 100	> 100	> 100
Cc1cc2nc3c(C#N)c4c(c(-c5ccc(Cl)cc5)n3c2cc1C)CCC4	54.8	–	40.5	90.6	79.4	57.5	> 100	49.1	46.8	50.3
CCCCOC(=O)C1CC[C@H]2[C@@H]3CCc4cc(OC(=O)c5cccc6c(=O)c7ccccc7[nH]c56)ccc4[C@H]3CC[C@]12C (stereo partly drawn)	18	21.3	18.6	17.1	16.7	21.7	24.3	14.5	18.7	21.2
Cc1ccc2nc(-c3ccc(C(C)(C)C)cc3)oc(=O)c2c1	43	43.9	38.3	32.3	62.8	39.3	54.2	54.2	53.9	62.1
COC1C(N(C)C)=C(c2ccccc2)C(=O)N2CCc3ccccc3C12 (stereo not drawn)	> 100	> 100	> 100	> 100	> 100	> 100	> 100	> 100	> 100	> 100
COC(=O)Nc1nc2ccc(S(=O)(=O)N3CCOCC3)cc2[nH]1	89.3	> 100	> 100	> 100	> 100	> 100	> 100	> 100	> 100	> 100
COc1ccc(C2C(=O)c3c(OC)cc(OC)cc3OC2c2cccnc2)cc1 (stereo not drawn)	> 100	> 100	> 100	> 100	> 100	> 100	> 100	> 100	> 100	> 100
CC1(C)OC2OC(C(COS(=O)(=O)C(F)(F)F)N=[N+]=[N-])C(OC(=O)c3ccccc3)C2O1 (stereo not drawn)	> 100	> 100	> 100	> 100	> 100	> 100	> 100	> 100	> 100	> 100
CC1=CP(=O)(c2c(C(C)C)cc(C(C)C)cc2C(C)C)CCC1Cl (stereo not drawn)	37.6	52.9	41.8	47.2	30.4	49.6	40.2	30.7	30.4	35.1
Cc1ccc2c(c1)nc1n2C(N)=Nc2ccccc2S1	> 100	> 100	> 100	> 100	> 91.6	> 100	> 100	> 100	> 100	> 100
